The IC50 is the concentration needed to halve the response being measured. Low readings indicate greater potency in that assay, high ones weaker potency in that assay. The inhibition is how much of the control response was suppressed.

Read-outs that look alike come from different tables or passages of the source.

The target of this experiment is CK2 (Homo sapiens (Human), UniProt P68400). As to the kind of experiment: Radiometric CK2 kinase assay. It counts as biochemical. To be noted: for inhibition at 1 µM: compound at 1 μM.
Sequence of CK2 (P68400 whole entry): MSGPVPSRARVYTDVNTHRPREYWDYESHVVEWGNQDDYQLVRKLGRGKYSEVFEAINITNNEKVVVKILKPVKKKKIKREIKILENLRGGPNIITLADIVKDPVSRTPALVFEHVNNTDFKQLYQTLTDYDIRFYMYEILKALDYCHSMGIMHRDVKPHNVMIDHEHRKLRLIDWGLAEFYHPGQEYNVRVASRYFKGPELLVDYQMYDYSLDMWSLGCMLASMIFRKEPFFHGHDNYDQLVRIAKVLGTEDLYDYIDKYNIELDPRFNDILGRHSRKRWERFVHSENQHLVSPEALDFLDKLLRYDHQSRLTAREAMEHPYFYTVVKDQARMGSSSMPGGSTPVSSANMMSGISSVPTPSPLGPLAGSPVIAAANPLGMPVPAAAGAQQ

In turn, `CC(C)COC(=O)c1[nH]c2ccc(Cl)cc2c1-c1cn(CC2CCN(CCNS(=O)(=O)c3ccc(C(F)(F)F)cc3)CC2)nn1` [AB601, Isobutyl 5-chloro-3-(1-((1-(2-((4-(trifluoromethyl)phenyl)sulfonamido)ethyl)piperidin-4-yl)methyl)-1H-1,2,3-triazol-4-yl)-1H-indole-2-carboxylate] returned a concentration for half-maximal inhibition (IC50) of 1400 nM.
As for `CC(C)COC(=O)c1[nH]c2ccc(F)cc2c1-c1cn(CC2CCN(CCNS(=O)(=O)c3ccc(C(C)C)cc3)CC2)nn1` [AB603, Isobutyl 5-fluoro-3-(1-((1-(2-((4-isopropylphenyl)sulfonamido)ethyl)piperidin-4-yl)methyl)-1H-1,2,3-triazol-4-yl)-1H-indole-2-carboxylate], the “Competition with peptide substrate” value is listed as “not competitive with the peptide substrate” and the midpoint of inhibition, the IC50, lay at 150 nM. In addition, the “Inhibition of CK2a versus CK2 holoenzyme” value (CK2a compared with CK2 holoenzyme) is reported as “not inhibited to the same extent”.
Turning to `CCc1ccc(S(=O)(=O)NCCN2CCC(Cn3cc(-c4c(C(=O)OCCN)[nH]c5ccc(F)cc45)nn3)CC2)cc1` [AB614, 2-Aminoethyl 3-(1-((1-(2-((4-ethylphenyl)sulfonamido)ethyl)piperidin-4-yl)methyl)-1H-1,2,3-triazol-4-yl)-5-fluoro-1H-indole-2-carboxylate], for the setting “inhibition of CK2 activity, ATP 10 μM”, the IC50 came to 3240 nM.
As to `CCc1ccc(S(=O)(=O)NCCN2CCC(Cn3cc(-c4c(C(=O)NCC(C)C)[nH]c5ccc(F)cc45)nn3)CC2)cc1` [AB651, 3-(1-((1-(2-((4-Ethylphenyl)sulfonamido)ethyl)piperidin-4-yl)methyl)-111-1,2,3-triazol-4-yl)-5-fluoro-N-isobutyl-1H-indole-2-carboxamide], for the setting “ATP 10 μM”, at 1 µM the inhibition was 5%.
Same read-out and setting: for `CC(C)CNC(=O)c1[nH]c2ccc(F)cc2c1-c1cn(CC2CCN(CCNS(=O)(=O)c3ccc(C(C)C)cc3)CC2)nn1` [AB652, 5-Fluoro-N-isobutyl-3-(1-((1-(2-((4-isopropylphenyl)sulfonamido)ethyl)piperidin-4-yl)methyl)-1H-1,2,3-triazol-4-yl)-1H-indole-2-carboxamide] the value was 4%.
With `CCc1ccc(S(=O)(=O)NCCN2CCC(Cn3cc(-c4c(C(=O)OCCC(C)C)[nH]c5ccc(F)cc45)nn3)CC2)cc1` [AB663, Isopentyl 3-(1-((1-(2-((4-ethylphenyl)sulfonamido)ethyl)piperidin-4-yl)methyl)-1H-1,2,3-triazol-4-yl)-5-fluoro-1H-indole-2-carboxylate], the inhibition at 1 µM (ATP 10 μM) came to 11%.
Take `CC(C)CCOC(=O)c1[nH]c2ccc(F)cc2c1-c1cn(CC2CCN(CCNS(=O)(=O)c3ccc(C(C)C)cc3)CC2)nn1` [AB664, Isopentyl 5-fluoro-3-(1-((1-(2-((4-isopropylphenyl)sulfonamido)ethyl)piperidin-4-yl)methyl)-1H-1,2,3-triazol-4-yl)-1H-indole-2-carboxylate]: where the note is “ATP 10 μM”, the inhibition at 1 µM stood at 15%.
Compound `CC(C)CCOC(=O)c1[nH]c2ccc(F)cc2c1-c1cn(CC2CCN(CCNS(=O)(=O)c3ccc(CC(C)C)cc3)CC2)nn1` [AB669, Isopentyl 5-fluoro-3-(1-((1-(2-((4-isobutylphenyl)sulfonamido)ethyl)piperidin-4-yl)methyl)-1H-1,2,3-triazol-4-yl)-1H-indole-2-carboxylate] had an inhibition at 1 µM (ATP 10 μM) of 32%.
`CCc1ccc(S(=O)(=O)NCCN2CCC(Cn3cc(-c4c(C(=O)NCCC(C)C)[nH]c5ccc(F)cc45)nn3)CC2)cc1` [AB670, 3-(1-((1-(2-((4-Ethylphenyl)sulfonamido)ethyl)piperidin-4-yl)methyl)-1H-1,2,3-triazol-4-yl)-5-fluoro-N-isopentyl-1H-indole-2-carboxamide]: for the setting “ATP 10 μM”, the inhibition at 1 µM was 14%.
Still for that read-out and setting: then `CC(C)CCNC(=O)c1[nH]c2ccc(F)cc2c1-c1cn(CC2CCN(CCNS(=O)(=O)c3ccc(C(C)C)cc3)CC2)nn1` [AB671, 5-Fluoro-N-isopentyl-3-(1-((1-(2-((4-isopropylphenyl)sulfonamido)ethyl)piperidin-4-yl)methyl)-1H-1,2,3-triazol-4-yl)-1H-indole-2-carboxamide], with 18%.

Source of the values: patent US20230278983A1, “INDOLE DERIVATIVES AND USES THEREOF FOR TREATING A CANCER” (Universite Claude Bernard Lyon 1, priority 2020, published 2023).
